Legend:
Format in all cases: in vivo, Arabidopsis
NI16 transcript = NI16 transcript accumulation in nim1-4 plants after BTH treatment; settings: after 2 and 24 hours of BTH treatment
NI16 RNA [1] = assay: Induction of NI16 mRNA by SA and BTH spray, RNA blot hybridization; settings: WS-O plants sprayed with 5 mM SA or 300 μm BTH
Protocol: RNA is prepared from 4 week old Wassilewskija (WS—O) plants, that are either sprayed with water, a 5 mM solution of sodium salicylate (SA), or a 300 μm solution of benzo-(1,2,3)-thiadiazole-7-carbothioic acid S-methyl ester (BTH). […] RNA extractions and RNA blot hybridizations are performed as described previously by Ausubel et al. (1987). NI16 RNA is induced 5–10 fold within 15 minutes of SA or BTH induction and reaches a peak of approximately 50 fold induction within 2 hours of SA treatment and 25 fold induction with BTH treatment.

NI16 gene = NI16 gene induction in NIM1-overexpressing plants treated with BTH
NI16 RNA [2] = assay: Quantitative Northern, NI16 level in wild type and NI16-overexpressing lines after BTH; settings: for NI16 level (relative): 24 hours after induction
From the text: (§1) A NI16 construct is made in binary vector pBAR35S (obtained from Jeff Dangi, UNC-Chapel Hill). First a full-length clone is obtained by cloning the 5′ sequence of NI16 (obtained by 5′ RACE and cloned into AT vector pCR2.1) into the EcoRI site of the original pJG4-5 clone as an EcoRI fragment. Then the entire coding region of NI16 is PCR cloned back into pCR2.1 with the primers 16F and 16 R (Table 1). The resulting plasmid is cut with XbaI and SacI for cloning into pBAR35S. The clone is transformed into Agrobacterium strain GV3101 (Koncz and Schell, 1986). WS—O and nim1-4 plants are transformed using standard procedures and the resulting T1 seed is selected by spraying with a 60 μg/ml solution of BASTA every two days for 6 days after germination. BASTA resistant plants are analyzed for levels of NI16 and PR-1 RNA after 4 weeks.
(§2) 4 WS—O plants expressing NI16 above wild type levels are recovered. All have elevated levels of PR-1 RNA as detected on Northern blots. All 4 plants are taken to the T3 generations. Quantitative Northerns are done on two of the T3 lines, one with a relatively low level of N116 RNA (1-1B) and one with a high level of N116 RNA (2-1B). Northerns are hybridized with NI16 and PR-1 probes. Measurements are taken with a Molecular Dynamics Phosphoimager, which directly measures counts per unit area. The amount of PR-1 RNA correlates directly with the amount of NI16 RNA, i.e., the highest expressers of NI16 have the highest levels of PR-1. (Table 2). […] PR-1 levels are induced at the same rate in the two NI16 lines as the WS—O control, however steady state PR-1 levels are higher, especially at 0 and 10 μm BTH. NI16 may therefore be necessary for the SAR response, and overexpression of NI16 may activate a subset of the response. PR-1 is also elevated in nahG, nim1-1 and nim1-4 plants overexpressing NI16. Out of 34 nim1-1 T1 plants containing the 35S-NI16 construct, 22 have elevated levels of PR-1. Similarly, 18/26 nim1-4 and 20/27 nahG primary transformants have elevated PR-1 levels. In each case, high NI16 expression is correlated with high PR-1 levels. This is significant because nim1 and nahG plants are normally deficient in their ability to induce PR1 in response to pathogens. Furthermore, this provides evidence that overexpression of NI16 can at least partially compensate for the absence of SA and a functional NIM protein in plants.

PR-1 RNA = assay: Quantitative Northern, PR-1 level in wild type and NI16-overexpressing lines after BTH; settings: 24 hours after induction
From the text: as §1, §2

[3] = NI16-overexpressing line 1-1B, 10 μm BTH
[4] = NI16-overexpressing line 1-1B, 100 μm BTH
[5] = NI16-overexpressing line 2-1B, 10 μm BTH
[6] = NI16-overexpressing line 2-1B, 100 μm BTH

SMILES: CSC(=O)c1cccc2nnsc12 [BTH, benzo(1,2,3)thiadiazole-7-carbothioic acid S-methyl ester]
- NI16 transcript accumulation (NI16 transcript): unable to accumulate NI16 transcript
- time NI16 transcript remains highly induced after treatment (NI16 RNA [1]): at least 48 hours
- NI16 RNA peak induction (NI16 RNA [1]; peak, within 2 hours of SA treatment): ~25 fold
- NI16 gene induction (NI16 gene): induced
- NI16 level (relative) (NI16 RNA [2]; [3]): 1400
- NI16 level (relative) (NI16 RNA [2]; [4]): 1480
- NI16 level (relative) (NI16 RNA [2]; [5]): 14000
- NI16 level (relative) (NI16 RNA [2]; [6]): 12000
- effect on amount of NI16 RNA (NI16 RNA [2]; NI16 transgenic lines, BTH rates lower than normally used for protection to Peronospora parasitica): do not significantly increase the amount of NI16 RNA
- NI16 level (relative) (NI16 RNA [2]; genotype WS, 10 μm BTH): 10
- NI16 level (relative) (NI16 RNA [2]; genotype WS, 100 μm BTH): 90
- PR-1 level (relative) (PR-1 RNA; [3]): 30
- PR-1 level (relative) (PR-1 RNA; [4]): 120
- PR-1 level (relative) (PR-1 RNA; [5]): 70
- PR-1 level (relative) (PR-1 RNA; [6]): 140
- PR-1 level (relative) (PR-1 RNA; genotype WS, 10 μm BTH): 30
- PR-1 level (relative) (PR-1 RNA; genotype WS, 100 μm BTH): 90
